Our source for the inhibition values is patent US20110230472A1, “RING-FUSED AZOLE DERIVATIVE HAVING PI3K-INHIBITING ACTIVITY” (Shionogi & Co., Ltd., priority 2008, published 2011).

A word on the inhibition: it is the percentage by which the read-out fell short of the control.

PI-3 kinase γ, sequence (P48736 whole entry): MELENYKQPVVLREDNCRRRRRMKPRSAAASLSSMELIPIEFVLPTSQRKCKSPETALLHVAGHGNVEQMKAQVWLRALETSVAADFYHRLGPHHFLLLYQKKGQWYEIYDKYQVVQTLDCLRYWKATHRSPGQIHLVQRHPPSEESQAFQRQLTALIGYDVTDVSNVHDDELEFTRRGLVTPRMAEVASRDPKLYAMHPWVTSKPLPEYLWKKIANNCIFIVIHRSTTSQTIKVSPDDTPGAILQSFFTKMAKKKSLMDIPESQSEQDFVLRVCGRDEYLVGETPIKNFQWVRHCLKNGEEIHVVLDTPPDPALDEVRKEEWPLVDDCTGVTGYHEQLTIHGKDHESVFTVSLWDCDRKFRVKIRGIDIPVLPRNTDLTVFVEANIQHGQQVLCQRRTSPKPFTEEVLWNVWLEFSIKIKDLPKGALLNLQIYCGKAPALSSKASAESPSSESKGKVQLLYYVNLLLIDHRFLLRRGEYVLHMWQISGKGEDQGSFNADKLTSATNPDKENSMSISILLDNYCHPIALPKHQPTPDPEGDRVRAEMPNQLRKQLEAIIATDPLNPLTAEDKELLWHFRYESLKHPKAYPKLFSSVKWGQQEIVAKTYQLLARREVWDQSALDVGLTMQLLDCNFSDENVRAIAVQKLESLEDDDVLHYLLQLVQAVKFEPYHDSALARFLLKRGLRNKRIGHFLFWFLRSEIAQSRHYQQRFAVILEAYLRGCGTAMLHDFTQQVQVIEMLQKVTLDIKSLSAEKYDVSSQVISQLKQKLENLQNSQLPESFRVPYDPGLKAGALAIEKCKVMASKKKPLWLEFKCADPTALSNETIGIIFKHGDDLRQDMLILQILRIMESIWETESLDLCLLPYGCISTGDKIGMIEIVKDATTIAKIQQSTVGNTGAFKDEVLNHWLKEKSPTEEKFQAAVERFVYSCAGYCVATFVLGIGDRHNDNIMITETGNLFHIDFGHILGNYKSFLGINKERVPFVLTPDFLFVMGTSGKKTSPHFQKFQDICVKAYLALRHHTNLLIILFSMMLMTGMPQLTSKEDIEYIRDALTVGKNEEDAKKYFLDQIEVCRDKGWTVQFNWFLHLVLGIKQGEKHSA

The target of the first assay is PI-3 kinase γ (Homo sapiens, UniProt P48736). Put plainly: PI3Kγ inhibitory activity, PI3-kinase HTRF assay (inhibition ratio). The following applies: 0.5 h; PI3Kγ, compound at 10 μM. In kind it is biochemical. The method, then: The PI3Kγ inhibitory activity of a compound was evaluated using PI3-kinase HTRF™ assay (Millipore) according to the following procedure:
To each well of a testing plate, 5 μL of a compound solution containing 10% DMSO (200 μmol/L or 40 μmol/L as the concentration of the compound), 5 μL of a substrate solution (40 μmol/L phosphatidylinositol (4,5)-bisphosphate, 20 mmol/L MgCl2, 10 mmol/L DTT), and 5 μL of a enzyme solution (80 μg/mL PI-3 kinase γ, 10 mmol/L MgCl2, 5 mmol/L DTT) were added, and then allowed to stand for 10 minutes.
Then, 5 μL of a reaction solution (40 μmol/L ATP, 10 mmol/L MgCl2, 5 mmol/L DTT) was added thereto. After reacting for 30 minutes at room temperature, 5 μL of a solution containing EDTA and biotinylated phosphatidylinositol (3,4,5)-triphosphate were added to quench the reaction.
5 μL of a detection reagent containing a europium-labeled anti-GST antibody, the GST-tagged PH domain, and allophycocyanin-labeled streptavidin was added thereto. After 18 hours, HTRF (excitation wavelength: 330 nm, measured wavelengths: 620 nm and 665 nm) was measured.
HTRF ratio was defined as the value obtained by dividing the amount of fluorescence obtained at the measured wavelength 665 nm by the amount of fluorescence obtained at 620 nm. The HTRF ratio in the absence of a compound was defined as 100% activity and the HTRF ratio in the absence of PI-3 kinase γ was defined as 0% activity to calculate an inhibition ratio which was defined as the PI3Kγ inhibitory activity of a compound at 50 μmol/L or 10 μmol/L.
For orientation: TR-FRET usually uses a lanthanide donor and a delayed reading to cut background.
Consider `COc1cc(N2CCc3nc(NC(=O)NCCC(=O)N4[C@H](C)CCC[C@@H]4C)sc3C2)nc(OC)n1` [Compound I-271], for which the inhibition at 10 µM was at least 95%.

In the case of `COc1cc(N2CCc3nc(NC(=O)NCCC(=O)N(C)c4ccccc4)sc3C2)nc(OC)n1` [Compound I-274], the inhibition at 10 µM was at least 95%.

Turning to `COc1cc(N2CCc3nc(NC(=O)NCCCOC(C)(C)C)sc3C2)nc(OC)n1` [Compound I-288], the inhibition at 10 µM was at least 95%.

Take `CNC(=O)Nc1nc2c(s1)CN(c1cc(Oc3ccccc3)nc(OCCCO)n1)CC2` [Compound I-263]: the inhibition at 10 µM is at least 95%. Regarding `COc1cc(N2CCc3nc(NC(=O)NCCC(=O)N(C)C(C)(C)C)sc3C2)nc(OC)n1` [Compound I-270], the inhibition at 10 µM was at least 95%.

Staying with this assay, now noted: 0.5 h; PI3Kγ, compound at 50 μM.
In the case of `CNC(=O)Nc1cc2n(n1)CCN2c1cc(Oc2ccccc2)cc(C(=O)N2CCOCC2)c1` [Compound I-223], the inhibition at 50 µM came to 91%. With `CNC(=O)Nc1cc2n(n1)CCN2c1cccc(C(C)=O)c1` [Compound I-165], the inhibition at 50 µM was at least 95%. Turning to `CNC(=O)Nc1cc2n(n1)CCN2c1ccc(C(=O)O)cc1` [Compound I-97], the inhibition at 50 µM was at least 95%. With `CCOC(=O)c1cccc(N2CCn3nc(NC(=O)NC)cc32)c1` [Compound I-83], the inhibition at 50 µM was at least 95%. In the case of `CC(C)(C)OC(=O)N1CCn2nc(NC(=O)NCC(=O)O)cc21` [Compound I-59], the inhibition at 50 µM amounted to 94%. For `O=C(Nc1cc2n(n1)CCN2c1cccc(Cl)c1)c1ccccc1` [Compound I-219], the inhibition at 50 µM is at least 95%. Consider `CNC(=O)Nc1nc2c(s1)CN(c1nccc(C(F)(F)F)n1)CC2` [Compound I-95], for which the inhibition at 50 µM was determined as 93%.

As to `CC(=O)Nc1cc2n(n1)CCN2c1ccccc1` [Compound I-140], the inhibition at 50 µM was at least 95%. Consider `COC(=O)c1cc(N2CCc3nc(NC(C)=O)sc3C2)nc(Cl)n1` [Compound I-116], for which the inhibition at 50 µM was at least 95%. As for `CNC(=O)Nc1cc2n(n1)CCN2c1cccc(-c2csc(N)n2)c1` [Compound I-192], the inhibition at 50 µM is at least 95%.

Regarding `CNC(=O)Nc1cc2n(n1)CCN2c1ccc(F)c(OC)c1` [Compound I-168], the inhibition at 50 µM is at least 95%. Take `CNC(=O)Nc1cc2n(n1)CCN2c1cc(C(=O)N2CCOCC2)cc(-c2cccnc2)c1` [Compound I-199]: the inhibition at 50 µM worked out at 89%. `CNC(=O)Nc1cc2n(n1)CCN2c1nc2ccccc2s1` [Compound I-115]: the inhibition at 50 µM is at least 95%. For the compound `CNC(=O)Nc1cc2n(n1)CCN2c1cc(Br)cc(C(=O)NCCC(=O)OC(C)(C)C)c1` [Compound I-174], the inhibition at 50 µM was at least 95%.

For the compound `CNC(=O)Nc1cc2n(n1)CCN2c1cc(Br)cc(C(=O)OC)c1` [Compound I-146], the inhibition at 50 µM was at least 95%. As to `CNC(=O)Nc1cc2n(n1)CCN2c1ccc2c(c1)CCNC2=O` [Compound I-194], the inhibition at 50 µM turned out to be 95%.

With `CNC(=O)Nc1cc2n(n1)CCN2c1cccc(CC(=O)OC(C)(C)C)c1` [Compound I-152], the inhibition at 50 µM is at least 95%.

Take `COc1cc(N2CCc3nc(NC(=O)[C@H](O)c4ccccc4)sc3C2)nc(OC)n1` [Compound I-257]: the inhibition at 50 µM was determined as 83%.

`CNC(=O)Nc1cc2n(n1)CCN2c1ccc(OC)cc1` [Compound I-114]: the inhibition at 50 µM is 83%. In the case of `CNC(=O)Nc1nc2c(s1)CN(c1cc(Oc3ccccc3)nc(SC)n1)CC2` [Compound I-147], the inhibition at 50 µM was at least 95%. As to `CCOC(=O)CNC(=O)Nc1cc2n(n1)CCN2C(=O)OC(C)(C)C` [Compound I-57], the inhibition at 50 µM is at least 95%. The same measure, in the same setting: to `CNC(=O)Nc1cc2n(n1)CCN2c1cc(Nc2ccccc2)cc(C(=O)O)c1` [Compound I-166] belongs at least 95%.

The same assay, now with this note: 0.5 h; compound at 10 μmol/L.
As for `Nc1cc2n(n1)CCN2c1ccc2cnccc2c1` [Compound I-316], the inhibition at 10 µM turned out to be 75%.

Regarding `CC(C)NC(=O)c1ccccc1NC(=O)Nc1nc2c(s1)CN(C(=O)c1ccc(O)cc1)CC2` [Compound I-550], the inhibition at 10 µM worked out at 81%.

For the compound `CN1CCc2cc(N3CCn4nc(NC(=O)c5ccc(N)nc5)cc43)ccc2C1=O` [Compound I-386], the inhibition at 10 µM is at least 95%. With `CC(C)N(C)C(=O)c1cc(C(=O)Nc2cc3n(n2)CCN3c2ccc3c(c2)CCN(C)C3=O)cs1` [Compound I-433], the inhibition at 10 µM is at least 95%.

Take `CN1CCc2cc(N3CCn4nc(NC(=O)c5cc6ccccc6[nH]5)cc43)ccc2C1=O` [Compound I-345]: the inhibition at 10 µM is 80%.

For the compound `CN1CCc2cc(N3CCn4nc(NC(=O)c5ccc(C(=O)NCC(=O)OC(C)(C)C)s5)cc43)ccc2C1=O` [Compound I-411], the inhibition at 10 µM was at least 95%. In the case of `COc1cc(N2CCc3nc(NC(=O)N/C(C)=C\C(=O)NC(C)(C)C)sc3C2)nc(OC)n1` [Compound I-392], the inhibition at 10 µM is at least 95%. Consider `CN1CCc2cc(N3CCn4nc(NC(=O)c5ccc(S(C)(=O)=O)cc5)cc43)ccc2C1=O` [Compound I-481], for which the inhibition at 10 µM amounted to 92%. Regarding `COc1cc(N2CCc3nc(NC(=O)Nc4cccs4)sc3C2)nc(OC)n1` [Compound I-296], the inhibition at 10 µM stood at 88%. With `CN1CCc2cc(N3CCn4nc(NC(=O)NCC(=O)O)cc43)ccc2C1=O` [Compound I-522], the inhibition at 10 µM is 94%. `CN1CCc2cc(N3CCn4nc(NC(=O)c5csc(Br)c5)cc43)ccc2C1=O` [Compound I-396]: the inhibition at 10 µM amounted to 76%. In the case of `CN1CCc2cc(N3CCn4nc(NC(=O)c5ccc(NC(=O)OC(C)(C)C)cc5)cc43)ccc2C1=O` [Compound I-480], the inhibition at 10 µM worked out at 86%.

With `COc1cc(N2CCc3nc(NC(=O)NCC(C)C(=O)NC(C)C)sc3C2)nc(OC)n1` (centres unmarked) [Compound I-547], the inhibition at 10 µM is at least 95%. For `Cc1cccc(C(=O)N2CCc3nc(NC(=O)Nc4ccccc4C(=O)NC(C)C)sc3C2)c1` [Compound I-514], the inhibition at 10 µM was found to be 76%. Consider `CC(=O)Nc1ncc(C(=O)Nc2cc3n(n2)CCN3c2ccc3c(c2)CCN(C)C3=O)s1` [Compound I-531], for which the inhibition at 10 µM stood at 75%. Take `COc1cccc(N2CCn3nc(NC(=O)c4ccc[nH]4)cc32)c1` [Compound I-320]: the inhibition at 10 µM is at least 95%. Consider `CN1CCc2cc(N3CCn4nc(NC(=O)c5csc(C(=O)NCC(C)(C)C)c5)cc43)ccc2C1=O` [Compound I-439], for which the inhibition at 10 µM is at least 95%.

In the case of `CN1CCc2cc(N3CCn4nc(NC(=O)N5CCCC5)cc43)ccc2C1=O` [Compound I-453], the inhibition at 10 µM amounted to 76%.

Take `COc1cc(N2CCc3nc(NC(=O)N4CCC(=O)N5CCOCC5C4=O)sc3C2)nc(OC)n1` (centres unmarked) [Compound I-304]: the inhibition at 10 µM stood at 89%. Regarding `CN1CCc2cc(N3CCn4nc(NC(=O)c5ccc(N)cc5)cc43)ccc2C1=O` [Compound I-489], the inhibition at 10 µM is at least 95%. On to `COc1cccc(C(=O)N2CCc3nc(NC(=O)Nc4ccccc4C(=O)NC(C)C)sc3C2)c1` [Compound I-484], for which the inhibition at 10 µM was at least 95%.

Take `CN1CCc2cc(N3CCn4nc(NC(=O)NCCC(=O)O)cc43)ccc2C1=O` [Compound I-537]: the inhibition at 10 µM is 87%. For `COc1cc(N2CCc3nc(NC(=O)c4ccsc4)sc3C2)nc(OC)n1` [Compound I-459], the inhibition at 10 µM stood at 92%. Same read-out and setting: to `CC(=O)Nc1nc2ccn(-c3cccc(Cl)c3)c2s1` [Compound I-471] belongs 91%. On to `CN1CCc2cc(N3CCn4nc(NC(=O)c5cnc(N6CCC[C@H]6C(=O)OC(C)(C)C)s5)cc43)ccc2C1=O` [Compound I-525], for which the inhibition at 10 µM is 94%. For `CN1CCc2cc(N3CCn4nc(NC(=O)c5ccccc5NC(=O)OC(C)(C)C)cc43)ccc2C1=O` [Compound I-493], the inhibition at 10 µM was 91%.

With `COc1cc(N2CCc3nc(NC(=O)C4CCCCC4)sc3C2)nc(OC)n1` [Compound I-552], the inhibition at 10 µM stood at 88%.

In the case of `COc1cc(N2CCc3nc(NC(=O)Nc4ccccc4Cl)sc3C2)nc(OC)n1` [Compound I-430], the inhibition at 10 µM was 84%. The same measure, in the same setting: to `CN1CCc2cc(N3CCn4nc(NC(=O)NCc5ccccc5)cc43)ccc2C1=O` [Compound I-370] belongs 84%. On the same count and under the same terms, to `CC(C)CNC(=O)c1ccc(C(=O)Nc2cc3n(n2)CCN3c2ccc3c(c2)CCN(C)C3=O)cc1` [Compound I-534] belongs 91%; to `COc1cc(N2CCc3nc(NC(=O)NC4CCCCC4)sc3C2)nc(OC)n1` [Compound I-294], 84%; to `COc1cc(N2CCc3nc(NC(=O)N4CC(C(=O)NC(C)C)C4)sc3C2)nc(OC)n1` [Compound I-528], 76%. Regarding `CC(=O)Nc1cc2n(n1)CCN2c1ccc2c(c1)CCC(=O)N2` [Compound I-335], the inhibition at 10 µM was at least 95%. In the case of `COC(=O)Nc1ccccc1C(=O)Nc1cc2n(n1)CCN2c1ccc2c(c1)CCN(C)C2=O` [Compound I-482], the inhibition at 10 µM is at least 95%. Regarding `Cc1ccsc1C(=O)Nc1cc2n(n1)CCN2c1ccc2c(c1)CCN(C)C2=O` [Compound I-444], the inhibition at 10 µM was 84%.
